Columns and labels:
[1] = Stability of DEM and DEX in rat plasma; assay type: physicochemical
[2] = cited from earlier work
[3] = tested on: CYP3A4; settings: in vitro; cited from earlier work
[4] = tested on: Cytochrome P450 2D6 (CYP2D6); settings: cited from earlier work
[5] = tested on: cytochrome P450 3A4 (CYP3A4); settings: cited from earlier work
[6] = autosampler stability (64 h and 3 min), HQC
[7] = autosampler stability (64 h and 3 min), LQC
[8] = benchtop stability (19 h and 28 min), HQC, rat plasma
[9] = benchtop stability (19 h and 28 min), LQC, rat plasma
[10] = freeze thaw stability (five cycles), HQC
[11] = freeze thaw stability (five cycles), HQC: nominal DEM 302.52, DEX 156.76 ng/mL
[12] = freeze thaw stability (five cycles), LQC
[13] = freeze thaw stability (five cycles), LQC: nominal DEM 0.58, DEX 0.30 ng/mL
[14] = long-term stability (49 days), HQC
[15] = long-term stability (49 days), LQC
[16] = long-term stability (49 days), −70 °C, HQC: nominal DEM 302.52, DEX 156.76 ng/mL
[17] = long-term stability (49 days), −70 °C, LQC: nominal DEM 0.58, DEX 0.30 ng/mL
[18] = processed sample stability (28 h and 21 min), HQC
[19] = processed sample stability (28 h and 21 min), LQC
[20] = wet extract stability (42 h and 12 min), HQC
[21] = wet extract stability (42 h and 12 min), LQC
[22] = wet extract stability (42 h and 12 min), LQC: nominal DEM 0.58, DEX 0.30 ng/mL

Q: Which results are given for CN1CC[C@@]23CCCC[C@@H]2[C@@H]1Cc1ccc(O)cc13 [DEX, dextrorphan]?
A: % difference [1, 6]: –3.41%; % difference [1, 7]: –3.45%; % difference [1, 8]: –0.70%; % difference [1, 9]: 0.00%; % difference [1, 10]: 0.66%; calculated conc. [1, 11]: 156.02 ± 1.22 ng/mL; % difference [1, 12]: 3.45%; calculated conc. [1, 13]: 0.30 ± 0.02 ng/mL; % difference [1, 14]: 0.32%; % difference [1, 15]: 3.45%; calculated conc. [1, 16]: 155.49 ± 7.51 ng/mL; calculated conc. [1, 17]: 0.30 ± 0.02 ng/mL; % difference [1, 18]: –1.99%; % difference [1, 19]: 3.45%; % difference [1, 20]: –0.69%; % difference [1, 21]: 6.90%; calculated conc. [1, 22]: 0.31 ± 0.02 ng/mL; fraction rapidly glucuronidated [2]: 98%

Q: For COc1cc2c(cc1O)CC[n+]1cc3c(OC)c(OC)ccc3cc1-2 [M38, jatrorrhizine], which “inhibition of CYP3A4” value [3] is on record?
A: reported to inhibit CYP3A4

Q: What does the source list for COc1ccc2c(c1)[C@]13CCCC[C@@H]1[C@H](C2)N(C)CC3 [DEM, Dextromethorphan]?
A: % difference [1, 6]: 2.32%; % difference [1, 7]: 3.51%; % difference [1, 8]: –0.36%; % difference [1, 9]: 5.29%; % difference [1, 10]: –2.53%; calculated conc. [1, 11]: 293.62 ± 16.24 ng/mL; % difference [1, 12]: 1.72%; calculated conc. [1, 13]: 0.57 ± 0.03 ng/mL; % difference [1, 14]: –0.54%; % difference [1, 15]: 3.51%; calculated conc. [1, 16]: 299.62 ± 9.41 ng/mL; calculated conc. [1, 17]: 0.58 ± 0.03 ng/mL; % difference [1, 18]: 2.35%; % difference [1, 19]: –0.06%; % difference [1, 20]: –0.83%; % difference [1, 21]: 8.86%; calculated conc. [1, 22]: 0.61 ± 0.05 ng/mL; share of metabolism of DEM to DEX by CYP2D6 [4]: 80%; share of metabolism of DEM to 3-methoxymorphinan by CYP3A4 [5]: 90%

Reference: paper PMC11154920 (ACS Omega, 2024)
